{"source": "patent US9695155B2", "about": "“Herbicidal substituted pyrimidinyloxy benzene compounds” (E. I. DU PONT DE NEMOURS AND COMPANY, priority 2013, dated 2017)", "key": {"[1]": {"tested_on": "barnyardgrass", "assay": "Test A preemergence", "assay_type": "in vivo, Echinochloa crus-galli", "outline": "(§1)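 Visual 0–100 rating (100 = complete control) taken about 10 d post-treatment relative to untreated checks. Preemergence: directed soil spray on sown loam/sand pots. Postemergence: seedlings 2–10 cm, 1–2 leaf. Non-phytotoxic solvent formulation with surfactant.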"}, "[2]": {"tested_on": "kochia", "assay": "Test A preemergence", "assay_type": "in vivo, Kochia scoparia", "outline": "as §1"}, "[3]": {"tested_on": "ragweed", "assay": "Test A preemergence", "assay_type": "in vivo, Ambrosia elatior", "outline": "as §1"}, "[4]": {"tested_on": "Italian ryegrass", "assay": "Test A preemergence", "assay_type": "in vivo, Lolium multiflorum", "outline": "as §1"}, "[5]": {"tested_on": "giant foxtail", "assay": "Test A preemergence", "assay_type": "in vivo, Setaria faberii", "outline": "as §1"}, "[6]": {"tested_on": "pigweed", "assay": "Test A preemergence", "assay_type": "in vivo, Amaranthus retroflexus", "outline": "as §1"}, "[7]": {"tested_on": "barnyardgrass", "assay": "Test A postemergence", "assay_type": "in vivo, Echinochloa crus-galli", "details": "0 to 100 scale, 0 no effect, 100 complete control", "outline": "as §1"}, "[8]": {"tested_on": "kochia", "assay": "Test A postemergence", "assay_type": "in vivo, Kochia scoparia", "details": "0 to 100 scale, 0 no effect, 100 complete control", "outline": "as §1"}, "[9]": {"tested_on": "ragweed", "assay": "Test A postemergence", "assay_type": "in vivo, Ambrosia elatior", "details": "0 to 100 scale, 0 no effect, 100 complete control", "outline": "as §1"}, "[10]": {"tested_on": "Italian ryegrass", "assay": "Test A postemergence", "assay_type": "in vivo, Lolium multiflorum", "details": "0 to 100 scale, 0 no effect, 100 complete control", "outline": "as §1"}, "[11]": {"tested_on": "giant foxtail", "assay": "Test A postemergence", "assay_type": "in vivo, Setaria faberii", "details": "0 to 100 scale, 0 no effect, 100 complete control", "outline": "as §1"}, "[12]": {"tested_on": "pigweed", "assay": "Test A postemergence", "assay_type": "in vivo, Amaranthus retroflexus", "details": "0 to 100 scale, 0 no effect, 100 complete control", "outline": "as §1"}, "[13]": {"tested_on": "wheat", "assay": "Test A postemergence", "assay_type": "in vivo, Triticum aestivum", "details": "0 to 100 scale, 0 no effect, 100 complete control", "outline": "as §1"}, "[14]": {"tested_on": "corn", "assay": "Test A postemergence", "assay_type": "in vivo, Zea mays", "details": "0 to 100 scale, 0 no effect, 100 complete control", "outline": "as §1"}, "[15]": {"tested_on": "blackgrass", "assay": "Test A postemergence", "assay_type": "in vivo, Alopecurus myosuroides", "details": "0 to 100 scale, 0 no effect, 100 complete control", "outline": "as §1"}, "[16]": {"tested_on": "galium", "assay": "Test A postemergence", "assay_type": "in vivo, Galium aparine", "details": "0 to 100 scale, 0 no effect, 100 complete control", "outline": "as §1"}, "[17]": {"tested_on": "rice", "assay": "Test B flooded paddy test", "assay_type": "in vivo, Oryza sativa", "details": "Flood, 250 g ai/ha, 0 to 100 scale where 0 is no effect and 100 is complete control", "outline": "(§2)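 Compound added straight to paddy water, with pots kept flooded 3 cm above soil, on plants grown to the 2-leaf stage. Visual scoring 0-100 (100 = complete control) against untreated controls after 13 to 15 greenhouse days.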"}, "[18]": {"tested_on": "sedge, umbrella", "assay": "Test B flooded paddy test", "assay_type": "in vivo, Cyperus difformis", "details": "Flood, 250 g ai/ha, 0 to 100 scale where 0 is no effect and 100 is complete control", "outline": "as §2"}, "[19]": {"tested_on": "Heteranthera limosa", "assay": "Test B flooded paddy test", "assay_type": "in vivo", "details": "Flood, 250 g ai/ha, 0 to 100 scale where 0 is no effect and 100 is complete control", "outline": "as §2"}, "[20]": {"tested_on": "barnyardgrass", "assay": "Test B flooded paddy test", "assay_type": "in vivo, Echinochloa crus-galli", "details": "Flood, 250 g ai/ha, 0 to 100 scale where 0 is no effect and 100 is complete control", "outline": "as §2"}, "[21]": {"details": "31 g ai/ha, 0 to 100 scale where 0 is no effect and 100 is complete control, visual, approximately 10 days"}, "[22]": {"details": "1000 g ai/ha, 0 to 100 scale, 0 no effect, 100 complete control, approx. 10 days"}}, "data": [{"smiles": "CC(C)Oc1cnn(-c2c(C#N)cccc2Oc2ncc(Br)cn2)c1", "note": "[Compound 254]", "values": [{"measurement": "Plant response rating, Barnyardgrass", "setting": "[1]; [21]", "value": 20}, {"measurement": "Barnyardgrass plant response rating (0 to 100 scale, 0 is no effect, 100 is complete control)", "setting": "[1]; 125 g ai/ha", "value": 80}, {"measurement": "Plant response rating, Kochia", "setting": "[2]; [21]", "value": 20}, {"measurement": "Kochia plant response rating (0 to 100 scale)", "setting": "[2]; 125 g ai/ha", "value": 80}, {"measurement": "Plant response rating, Ragweed", "setting": "[3]; [21]", "value": 0}, {"measurement": "Ragweed plant response rating (0 to 100 scale)", "setting": "[3]; 125 g ai/ha", "value": 0}, {"measurement": "Plant response rating, Ryegrass, Italian", "setting": "[4]; [21]", "value": 0}, {"measurement": "Ryegrass, Italian plant response rating (0 to 100 scale)", "setting": "[4]; 125 g ai/ha", "value": 40}, {"measurement": "Plant response rating, Foxtail, Giant", "setting": "[5]; [21]", "value": 30}, {"measurement": "Foxtail, Giant plant response rating (0 to 100 scale)", "setting": "[5]; 125 g ai/ha", "value": 90}, {"measurement": "Plant response rating, Pigweed", "setting": "[6]; [21]", "value": 30}, {"measurement": "Pigweed plant response rating (0 to 100 scale)", "setting": "[6]; 125 g ai/ha", "value": 90}, {"measurement": "Plant response rating, Barnyardgrass", "setting": "[7]; 31 g ai/ha", "value": 10}, {"measurement": "Plant response rating, Barnyardgrass", "setting": "[7]; 125 g ai/ha", "value": 60}, {"measurement": "Plant response rating, Kochia", "setting": "[8]; 31 g ai/ha", "value": 20}, {"measurement": "Plant response rating, Kochia", "setting": "[8]; 125 g ai/ha", "value": 60}, {"measurement": "Plant response rating, Ragweed", "setting": "[9]; 31 g ai/ha", "value": 10}, {"measurement": "Plant response rating, Ragweed", "setting": "[9]; 125 g ai/ha", "value": 20}, {"measurement": "Plant response rating, Ryegrass, Italian", "setting": "[10]; 31 g ai/ha", "value": 0}, {"measurement": "Plant response rating, Ryegrass, Italian", "setting": "[10]; 125 g ai/ha", "value": 20}, {"measurement": "Plant response rating, Foxtail, Giant", "setting": "[11]; 31 g ai/ha", "value": 10}, {"measurement": "Plant response rating, Foxtail, Giant", "setting": "[11]; 125 g ai/ha", "value": 60}, {"measurement": "Plant response rating, Pigweed", "setting": "[12]; 31 g ai/ha", "value": 10}, {"measurement": "Plant response rating, Pigweed", "setting": "[12]; 125 g ai/ha", "value": 30}, {"measurement": "Plant response rating, Wheat", "setting": "[13]; 31 g ai/ha", "value": 0}, {"measurement": "Plant response rating, Wheat", "setting": "[13]; 125 g ai/ha", "value": 30}, {"measurement": "Plant response rating, Corn", "setting": "[14]; 31 g ai/ha", "value": 10}, {"measurement": "Plant response rating, Corn", "setting": "[14]; 125 g ai/ha", "value": 20}, {"measurement": "Plant response rating, Blackgrass", "setting": "[15]; 31 g ai/ha", "value": 0}, {"measurement": "Plant response rating, Blackgrass", "setting": "[15]; 125 g ai/ha", "value": 60}, {"measurement": "Plant response rating, Galium", "setting": "[16]; 31 g ai/ha", "value": 20}, {"measurement": "Plant response rating, Galium", "setting": "[16]; 125 g ai/ha", "value": 100}, {"measurement": "Plant response rating, Rice", "setting": "[17]", "value": 0}, {"measurement": "Plant response rating, Sedge, Umbrella", "setting": "[18]", "value": 60}, {"measurement": "Plant response rating, Ducksalad", "setting": "[19]", "value": 65}, {"measurement": "Plant response rating, Barnyardgrass", "setting": "[20]", "value": 0}]}, {"smiles": "FC(F)(F)c1cnn(-c2c(Oc3ncc(Cl)cn3)cccc2-c2nnco2)c1", "note": "[Compound 298, 2-[3-[(5-chloro-2-pyrimidinyl)oxy]-2-[4-(trifluoromethyl)-1H-pyrazol-1-yl]phenyl]-1,3,4-oxadiazole]", "values": [{"measurement": "pest or weed control at 1000 g/ha", "setting": "[1]; Echinochloa crus-galli, pre-emergence, 240 h, 1000 g ai/ha, 0 to 100 scale, 0 no effect, 100 complete control, approx. 10 days, read-out: Barnyardgrass plant response rating", "value": 100, "unit": "%"}, {"measurement": "Kochia plant response rating", "setting": "[2]; [22]", "value": 90}, {"measurement": "Ragweed plant response rating", "setting": "[3]; [22]", "value": 90}, {"measurement": "Ryegrass, Italian plant response rating", "setting": "[4]; [22]", "value": 50}, {"measurement": "pest or weed control at 1000 g/ha", "setting": "[5]; Setaria faberi, pre-emergence, 240 h, 1000 g ai/ha, 0 to 100 scale, 0 no effect, 100 complete control, approx. 10 days, read-out: Foxtail, Giant plant response rating", "value": 100, "unit": "%"}, {"measurement": "pest or weed control at 1000 g/ha", "setting": "[6]; Amaranthus retroflexus, pre-emergence, 240 h, 1000 g ai/ha, 0 to 100 scale, 0 no effect, 100 complete control, approx. 10 days, read-out: Pigweed plant response rating", "value": 100, "unit": "%"}, {"measurement": "pest or weed control at 1000 g/ha", "setting": "[7]; Echinochloa crus-galli, post-emergence, 240 h, 1000 g ai/ha, read-out: Plant response rating Barnyardgrass", "value": 90, "unit": "%"}, {"measurement": "Plant response rating, Kochia", "setting": "[8]; 1000 g ai/ha", "value": 100}, {"measurement": "Plant response rating, Ragweed", "setting": "[9]; 1000 g ai/ha", "value": 90}, {"measurement": "Plant response rating, Ryegrass, Italian", "setting": "[10]; 1000 g ai/ha", "value": 70}, {"measurement": "pest or weed control at 1000 g/ha", "setting": "[11]; Setaria faberi, post-emergence, 240 h, 1000 g ai/ha, read-out: Plant response rating Foxtail, Giant", "value": 90, "unit": "%"}, {"measurement": "pest or weed control at 1000 g/ha", "setting": "[12]; Amaranthus retroflexus, post-emergence, 240 h, 1000 g ai/ha, read-out: Plant response rating Pigweed", "value": 100, "unit": "%"}, {"measurement": "plant injury at 1000 g/ha", "setting": "[13]; Triticum aestivum, post-emergence, 240 h, 1000 g ai/ha, read-out: Plant response rating Wheat", "value": 40, "unit": "%"}, {"measurement": "plant injury at 1000 g/ha", "setting": "[14]; Zea mays, post-emergence, 240 h, 1000 g ai/ha, read-out: Plant response rating Corn", "value": 70, "unit": "%"}, {"measurement": "Plant response rating, Blackgrass", "setting": "[15]; 1000 g ai/ha", "value": 80}, {"measurement": "Plant response rating, Galium", "setting": "[16]; 1000 g ai/ha", "value": 80}, {"measurement": "plant injury at 250 g/ha", "setting": "[17]; Oryza sativa, read-out: Plant response rating, Rice", "value": 0, "unit": "%"}, {"measurement": "pest or weed control at 250 g/ha", "setting": "[18]; Cyperus difformis, read-out: Plant response rating, Sedge, Umbrella", "value": 30, "unit": "%"}, {"measurement": "pest or weed control at 250 g/ha", "setting": "[19]; Heteranthera limosa, read-out: Plant response rating, Ducksalad", "value": 0, "unit": "%"}, {"measurement": "pest or weed control at 250 g/ha", "setting": "[20]; Echinochloa crus-galli, read-out: Plant response rating, Barnyardgrass", "value": 0, "unit": "%"}]}]}
